US20240239752A1, “BICYCLIC HETEROAROMATIC INHIBITORS OF KLK5” (BioCryst Pharmaceuticals, Inc., priority 2021, published 2024)

The compounds below were run against T1, recombinant human KLK5 (Homo sapiens, UniProt Q9Y337) (assay: Kallikrein (KLK) 5 enzymatic assay (Boc-VPR-AMC fluorogenic substrate)). Settings: recombinant human KLK5 0.1 μg/well, Boc-VPR-AMC 100 μM, pH 7.5, room temperature, 1% DMSO; tested a minimum of three times.
T1 construct: purchased Novoprotein or R&D Systems C415 or 1108-SE
T1 sequence (Q9Y337 23-293): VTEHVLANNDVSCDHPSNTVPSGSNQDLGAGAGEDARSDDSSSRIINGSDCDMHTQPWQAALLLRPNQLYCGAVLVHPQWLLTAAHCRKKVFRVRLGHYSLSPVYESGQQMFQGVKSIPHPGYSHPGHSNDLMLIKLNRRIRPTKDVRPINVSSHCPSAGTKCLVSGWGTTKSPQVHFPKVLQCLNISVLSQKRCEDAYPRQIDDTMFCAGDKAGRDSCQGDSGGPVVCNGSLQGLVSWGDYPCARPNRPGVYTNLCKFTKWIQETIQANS
Format: biochemical
Method in brief: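 Fluorogenic rate assay at pH 7.5 (0.1 M NaH2PO4, 1% DMSO, room temperature), run at least three times per compound. Compound was premixed with 0.1 μg/well recombinant human KLK5 before adding 100 μM Boc-VPR-AMC; AMC release was read at ex 380/em 460 nm, and IC50 derived from inhibition of rate vs DMSO control.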

IC50 [µM]	SMILES
1 to 10	Cc1ccc(OCc2nn(C3CCC3)c3ccc(-c4ccc5ccnc(N)c5c4)cc23)c(CC(=O)O)c1 [Compound 164c, 2-(2-((5-(1-aminoisoquinolin-7-yl)-1-cyclobutyl-1H-indazol-3-yl)methoxy)-5-methylphenyl)acetic acid]
< 1	Cc1ccc(OCc2nn(C3CCC3)c3ccc(-c4cccc5c(N)nccc45)cc23)c(CC(=O)O)c1 [Compound 165b, 2-(2-((5-(1-aminoisoquinolin-5-yl)-1-cyclobutyl-1H-indazol-3-yl)methoxy)-5-methylphenyl)acetic acid]
< 1	Nc1nccc2ccc(-c3ccc4c(c3)c(COc3ccc(F)cc3CC(=O)O)nn4C3CCC3)cc12 [Compound 166d, 2-(2-((5-(1-aminoisoquinolin-7-yl)-1-cyclobutyl-1H-indazol-3-yl)methoxy)-5-fluorophenyl)acetic acid]
< 1	Nc1nccc2c(-c3ccc4c(c3)c(COc3ccc(F)cc3CC(=O)O)nn4C3CCC3)cccc12 [Compound 167b, 2-(2-((5-(1-aminoisoquinolin-5-yl)-1-cyclobutyl-1H-indazol-3-yl)methoxy)-5-fluorophenyl)acetic acid]
< 1	Nc1nccc2c(-c3ccc4c(c3)c(COc3cc(F)ccc3CC(=O)O)nn4C3CCC3)cccc12 [Compound 168c, 2-(2-((5-(1-aminoisoquinolin-5-yl)-1-cyclobutyl-1H-indazol-3-yl)methoxy)-4-fluorophenyl)acetic acid]
< 1	COc1ccc(CC(=O)O)c(OCc2nn(C3CCC3)c3ccc(-c4cccc5c(N)nccc45)cc23)c1 [Compound 169c, 2-(2-((5-(1-aminoisoquinolin-5-yl)-1-cyclobutyl-1H-indazol-3-yl)methoxy)-4-methoxyphenyl)acetic acid]
< 1	COc1ccc(OCc2nn(C3CCC3)c3ccc(-c4ccc5ccnc(N)c5c4)cc23)c(CC(=O)O)c1 [Compound 170c, 2-(2-((5-(1-aminoisoquinolin-7-yl)-1-cyclobutyl-1H-indazol-3-yl)methoxy)-5-methoxyphenyl)acetic acid]
< 1	COc1ccc(OCc2nn(C3CCC3)c3ccc(-c4cccc5c(N)nccc45)cc23)c(CC(=O)O)c1 [Compound 171b, 2-(2-((5-(1-aminoisoquinolin-5-yl)-1-cyclobutyl-1H-indazol-3-yl)methoxy)-5-methoxyphenyl)acetic acid]
1 to 10	COc1cccc(OCc2nn(C3CCC3)c3ccc(-c4ccc5ccnc(N)c5c4)cc23)c1CC(=O)O [Compound 172d, 2-(2-((5-(1-aminoisoquinolin-7-yl)-1-cyclobutyl-1H-indazol-3-yl)methoxy)-6-methoxyphenyl)acetic acid]
< 1	COc1cccc(OCc2nn(C3CCC3)c3ccc(-c4cccc5c(N)nccc45)cc23)c1CC(=O)O [Compound 173b, 2-(2-((5-(1-aminoisoquinolin-5-yl)-1-cyclobutyl-1H-indazol-3-yl)methoxy)-6-methoxyphenyl)acetic acid]
1 to 10	CCOC(=O)Cc1cccc(C#N)c1OCc1nn(C2CCC2)c2ccc(Br)cc12 [Compound 174c, ethyl 2-(2-((5-bromo-1-cyclobutyl-1H-indazol-3-yl)methoxy)-3-cyanophenyl)acetate]
1 to 10	N#Cc1cccc(CC(=O)O)c1OCc1nn(C2CCC2)c2ccc(-c3cccc4c(N)nccc34)cc12 [Compound 175b, 2-(2-((5-(1-aminoisoquinolin-5-yl)-1-cyclobutyl-1H-indazol-3-yl)methoxy)-3-cyanophenyl)acetic acid]
< 1	Nc1nccc2ccc(-c3ccc4c(c3)c(COc3c(CC(=O)O)cccc3C(=O)O)nn4C3CCC3)cc12 [Compound 176a, 2-((5-(1-aminoisoquinolin-7-yl)-1-cyclobutyl-1H-indazol-3-yl)methoxy)-3-(carboxymethyl)benzoic acid]
1 to 10	Nc1nccc2c(-c3ccc4c(c3)c(COc3c(CC(=O)O)cccc3C(=O)O)nn4C3CCC3)cccc12 [Compound 177a, 2-((5-(1-aminoisoquinolin-5-yl)-1-cyclobutyl-1H-indazol-3-yl)methoxy)-3-(carboxymethyl)benzoic acid]
< 1	CCn1nc(COc2ccccc2CC(=O)O)c2cc(-c3cccc4c(N)nccc34)ccc21 [Compound 178f, 2-(2-((5-(1-aminoisoquinolin-5-yl)-1-ethyl-1H-indazol-3-yl)methoxy)phenyl)acetic acid]
< 1	CCn1nc(COc2ccccc2CC(=O)O)c2cc(-c3ccc4ccnc(N)c4c3)ccc21 [Compound 179b, 2-(2-((5-(1-aminoisoquinolin-7-yl)-1-ethyl-1H-indazol-3-yl)methoxy)phenyl)acetic acid]

IC50 [µM]	SMILES
1 to 10	CCc1cccc(OCc2nn(C3CCC3)c3ccc(-c4ccc5ccnc(N)c5c4)cc23)c1CC(=O)O [Compound 180g, 2-(2-((5-(1-aminoisoquinolin-7-yl)-1-cyclobutyl-1H-indazol-3-yl)methoxy)-6-ethylphenyl)acetic acid]
< 1	CCc1cccc(OCc2nn(C3CCC3)c3ccc(-c4cccc5c(N)nccc45)cc23)c1CC(=O)O [Compound 181b, 2-(2-((5-(1-aminoisoquinolin-5-yl)-1-cyclobutyl-1H-indazol-3-yl)methoxy)-6-ethylphenyl)acetic acid]
< 1	CCOC(=O)Cc1ccccc1OCc1nn(CCF)c2ccc(Br)cc12 [Compound 182c, ethyl 2-(2-((5-bromo-1-(2-fluoroethyl)-1H-indazol-3-yl)methoxy)phenyl)acetate]
< 1	Nc1nccc2c(-c3ccc4c(c3)c(COc3ccccc3CC(=O)O)nn4CCF)cccc12 [Compound 183b, 2-(2-((5-(1-aminoisoquinolin-5-yl)-1-(2-fluoroethyl)-1H-indazol-3-yl)methoxy)phenyl)acetic acid]
< 1	CCCCn1nc(COc2ccccc2CC(=O)O)c2cc(-c3ccc4ccnc(N)c4c3)ccc21 [Compound 184e, 2-(2-((5-(1-aminoisoquinolin-7-yl)-1-butyl-1H-indazol-3-yl)methoxy)phenyl)acetic acid]
< 1	CCCCn1nc(COc2ccccc2CC(=O)O)c2cc(-c3cccc4c(N)nccc34)ccc21 [Compound 185b, 2-(2-((5-(1-aminoisoquinolin-5-yl)-1-butyl-1H-indazol-3-yl)methoxy)phenyl)acetic acid]
< 1	CCCn1nc(COc2ccccc2CC(=O)O)c2cc(-c3ccc4ccnc(N)c4c3)ccc21 [Compound 186e, 2-(2-((5-(1-aminoisoquinolin-7-yl)-1-propyl-1H-indazol-3-yl)methoxy)phenyl)acetic acid]
< 1	CCCn1nc(COc2ccccc2CC(=O)O)c2cc(-c3cccc4c(N)nccc34)ccc21 [Compound 187b, 2-(2-((5-(1-aminoisoquinolin-5-yl)-1-propyl-1H-indazol-3-yl)methoxy)phenyl)acetic acid]
< 1	CC(C)Cn1nc(COc2ccccc2CC(=O)O)c2cc(-c3ccc4ccnc(N)c4c3)ccc21 [Compound 188e, 2-(2-((5-(1-aminoisoquinolin-7-yl)-1-isobutyl-1H-indazol-3-yl)methoxy)phenyl)acetic acid]
< 1	CC(C)Cn1nc(COc2ccccc2CC(=O)O)c2cc(-c3cccc4c(N)nccc34)ccc21 [Compound 189b, 2-(2-((5-(1-aminoisoquinolin-5-yl)-1-isobutyl-1H-indazol-3-yl)methoxy)phenyl)acetic acid]
< 1	CC[C@@H](C)n1nc(COc2ccccc2CC(=O)O)c2cc(-c3ccc4ccnc(N)c4c3)ccc21 [Compound 190e, (R)-2-(2-((5-(1-aminoisoquinolin-7-yl)-1-(sec-butyl)-1H-indazol-3-yl)methoxy)phenyl)acetic acid]
< 1	CC[C@@H](C)n1nc(COc2ccccc2CC(=O)O)c2cc(-c3cccc4c(N)nccc34)ccc21 [Compound 191b, (R)-2-(2-((5-(1-aminoisoquinolin-5-yl)-1-(sec-butyl)-1H-indazol-3-yl)methoxy)phenyl)acetic acid]
< 1	CC[C@H](C)n1nc(COc2ccccc2CC(=O)O)c2cc(-c3ccc4ccnc(N)c4c3)ccc21 [Compound 192e, (S)-2-(2-((5-(1-aminoisoquinolin-7-yl)-1-(sec-butyl)-1H-indazol-3-yl)methoxy)phenyl)acetic acid]
< 1	CC[C@H](C)n1nc(COc2ccccc2CC(=O)O)c2cc(-c3cccc4c(N)nccc34)ccc21 [Compound 193b, (S)-2-(2-((5-(1-aminoisoquinolin-5-yl)-1-(sec-butyl)-1H-indazol-3-yl)methoxy)phenyl)acetic acid]
< 1	Cn1nc(COc2ccccc2CC(=O)O)c2cc(-c3ccc4ccnc(N)c4c3)cnc21 [Compound 196e, 2-(2-((5-(1-aminoisoquinolin-7-yl)-1-methyl-1H-pyrazolo[3,4-b]pyridin-3-yl)methoxy)phenyl)acetic acid]

SMILES	IC50 [µM]
CC(C)(C)OC(=O)N1CC(Cn2nc(COc3ccccc3CC(=O)O)c3cc(-c4ccc5ccnc(N)c5c4)ccc32)C1 [Compound 194g, 2-(2-((5-(1-aminoisoquinolin-7-yl)-1-((1-(tert-butoxycarbonyl)azetidin-3-yl)methyl)-1H-indazol-3-yl)methoxy)phenyl)acetic acid]	< 1
CC(C)(C)OC(=O)N1CC(Cn2nc(COc3ccccc3CC(=O)O)c3cc(-c4cccc5c(N)nccc45)ccc32)C1 [Compound 195b, 2-(2-((5-(1-aminoisoquinolin-5-yl)-1-((1-(tert-butoxycarbonyl)azetidin-3-yl)methyl)-1H-indazol-3-yl)methoxy)phenyl)acetic acid]	< 1
